The results in this text go back to ChEMBL document CHEMBL5346899, “PKM2/PDK1 dual-targeted shikonin derivatives restore the sensitivity of EGFR-mutated NSCLC cells to gefitinib by remodeling glucose metabolism” (Eur J Med Chem, 2023).

One may read the IC50 as the concentration that inhibits the measured activity by half. A higher IC50 goes with weaker potency.

The test system of data set [1] is NCI-H1299. Briefly: cells. The data set is classed as functional, cell-based. The conditions noted are these: Homo sapiens, NCI-H1299, 24 h.
Description: Antiproliferative activity against human NCI-H1299 cells assessed as inhibition of cell growth incubated for 24 hrs by CCK-8 assay
Data set [2] relates to NCI-H1975. Briefly: cells. The note with it: Homo sapiens, NCI-H1975, 24 h. The data set is classed as functional, cell-based.
Description: Antiproliferative activity against human NCI-H1975 cells assessed as inhibition of cell growth incubated for 24 hrs by CCK-8 assay
The next data set in a line: in vitro. The conditions noted are these: human, HEK293T cells.
The subject of data set [3] is HCC827. The data set is described as follows: cells. The data set is classed as functional, cell-based. The conditions noted are these: Homo sapiens, HCC827, 24 h.
Description: Antiproliferative activity against human HCC827 cells assessed as inhibition of cell growth incubated for 24 hrs by CCK-8 assay
Data set [4] has as its system A549. The data set is described as follows: cells. The data set is classed as functional, cell-based. The note with it: Homo sapiens, A549, 24 h.
Description: Antiproliferative activity against human A549 cells assessed as inhibition of cell growth incubated for 24 hrs by CCK-8 assay
Data set [5] deals with NCI-H1975. Briefly: Induction of apoptosis in human NCI-H1975 cells assessed as late apoptotic cells at 2 micromol/L incubated for 24 hrs by Annexin V-FITC/PI staining based analysis (reference value: 2.66%). The conditions noted are these: dose 2 µmol/L, at 2 µM. The data set is classed as functional.
Data set [6] concerns HCC827. Briefly: Induction of apoptosis in human HCC827 cells assessed as early apoptotic cells at 2 micromol/L incubated for 24 hrs by Annexin V-FITC/PI staining based analysis (reference value: 9.14%). The conditions noted are these: dose 2 µmol/L, at 2 µM. The data set is classed as functional.
In data set [7] the test system is NCI-H1299. The data set is described as follows: Induction of apoptosis in human NCI-H1299 cells assessed as late apoptotic cells at 2 micromol/L incubated for 24 hrs by Annexin V-FITC/PI staining based analysis (reference value: 14.9%). The data set is classed as functional. The conditions noted are these: dose 2 µmol/L, at 2 µM.
The test system of data set [8] is NCI-H1975. Briefly: Induction of mitochondrial transmembrane potential dissipation in human NCI-H1975 cells assessed as cells with high mitochondrial transmembrane potential at 1 micromol/L by FL-1/FL-2 channel based fluorescence analysis (reference value: 97.4%). The data set is classed as functional. The note with it: dose 1 µmol/L; at 1 µM.
For data set [9], the system named is NCI-H1975. Briefly: Induction of apoptosis in human NCI-H1975 cells assessed as early apoptotic cells at 2 micromol/L incubated for 24 hrs by Annexin V-FITC/PI staining based analysis (reference value: 1.88%). The data set is classed as functional. The conditions noted are these: dose 2 µmol/L, at 2 µM.
Data set [10] has as its system A549. Briefly: Induction of apoptosis in human A549 cells assessed as late apoptotic cells at 2 micromol/L incubated for 24 hrs by Annexin V-FITC/PI staining based analysis (reference value: 3.18%). The conditions noted are these: dose 2 µmol/L, at 2 µM. The data set is classed as functional.
Data set [11] relates to HCC827. The data set is described as follows: Induction of apoptosis in human HCC827 cells assessed as late apoptotic cells at 2 micromol/L incubated for 24 hrs by Annexin V-FITC/PI staining based analysis (reference value: 8.42%). The data set is classed as functional. The note with it: dose 2 µmol/L, at 2 µM.
The subject of data set [12] is NCI-H1975. The data set is described as follows: Induction of mitochondrial transmembrane potential dissipation in human NCI-H1975 cells assessed as cells with low mitochondrial transmembrane potential at 1 micromol/L by FL-1/FL-2 channel based fluorescence analysis (reference value: 2.13%). The data set is classed as functional. The note with it: dose 1 µmol/L; at 1 µM.

For data set [13], the system named is NCI-H1299. Briefly: Induction of apoptosis in human NCI-H1299 cells assessed as early apoptotic cells at 2 micromol/L incubated for 24 hrs by Annexin V-FITC/PI staining based analysis (reference value: 2.43%). The data set is classed as functional. The conditions noted are these: dose 2 µmol/L, at 2 µM.
Data set [14] concerns A549. The data set is described as follows: Induction of apoptosis in human A549 cells assessed as early apoptotic cells at 2 micromol/L incubated for 24 hrs by Annexin V-FITC/PI staining based analysis (reference value: […]%). The data set is classed as functional. The conditions noted are these: dose 2 µmol/L.

Description for in vitro: Cytotoxicity against HEK293T cells assessed as inhibition of cell growth incubated for 24 hrs by CCK-8 assay

In the case of `COC(=O)[C@H](CS[C@H](CC=C(C)C)C1=CC(=O)c2c(O)ccc(O)c2C1=O)NC(=O)CCCC[C@@H]1CCSC(c2ccc([N+](=O)[O-])cc2)S1` (stereo not given in full), the IC50 with NCI-H1299 [1] amounted to 5.34 µM; in the data set on NCI-H1975 [2] it was 17 µM; with HCC827 [3], 25.9 µM; in the data set with A549 [4] it was 21.8 µM. The compound further came in with an IC50 at 24 h in “in vitro” of 94.2 µM.

For the compound `COC(=O)[C@H](CS[C@H](CC=C(C)C)C1=CC(=O)c2c(O)ccc(O)c2C1=O)NC(=O)CCCC[C@@H]1CCSC(c2ccc(C(C)C)cc2)S1` (stereo not given in full), the IC50 in the data set with NCI-H1299 [1] is 4.93 µM; in the data set with NCI-H1975 [2] it was 4.08 µM; with HCC827 [3], 4.21 µM; in the data set on A549 [4] it was 4.21 µM. This compound also returned a concentration for half-maximal inhibition (IC50) at 24 h in “in vitro” of 77.5 µM.

Regarding `COC(=O)[C@H](CS[C@H](CC=C(C)C)C1=CC(=O)c2c(O)ccc(O)c2C1=O)NC(=O)CCCC[C@@H]1CCSC(c2ccc(C(F)(F)F)cc2)S1` (stereo not given in full), the IC50 in the data set on NCI-H1299 [1] was 4.58 µM; in the data set on NCI-H1975 [2], 2.32 µM; in the data set with HCC827 [3] it was 7.15 µM; in the data set on A549 [4], 6.49 µM. For the same compound, the IC50 at 24 h in “in vitro” amounted to 84.9 µM.

Turning to `COC(=O)[C@H](CS[C@H](CC=C(C)C)C1=CC(=O)c2c(O)ccc(O)c2C1=O)NC(=O)CCCC[C@@H]1CCSC(c2ccccc2)S1` (stereo not given in full), the IC50 turned out to be 6.33 µM with NCI-H1299 [1], 11.5 µM in the data set on NCI-H1975 [2], 6.09 µM in the data set on HCC827 [3] and 8.6 µM in the data set on A549 [4]. Moreover, in “in vitro”, the IC50 at 24 h turned out to be 95.5 µM.

`CC(C)=CC[C@@H](O)C1=CC(=O)c2c(O)ccc(O)c2C1=O` [SHIKONIN]: the Activity in the data set on NCI-H1975 [5] came out at 9.96%; in the data set on HCC827 [6], 27.5%; in the data set on NCI-H1299 [7] it was 17.2%; with NCI-H1975 [8], 91.3%; with NCI-H1975 [9] it was 8.91%; with A549 [10], 4.66%. The Activity with HCC827 [11] is given as 22.1%; in the data set with NCI-H1975 [12] it was 8.69%; with NCI-H1299 [13], 4.34%; in the data set on A549 [14], 10.7%. For the same compound, the IC50 in the data set on NCI-H1299 [1] turned out to be 3.95 µM; with NCI-H1975 [2], 4.56 µM; in the data set on HCC827 [3], 9.21 µM; in the data set on A549 [4] it was 4.47 µM. For the same compound, the IC50 at 24 h in the data set “in vitro” stood at 2.63 µM.

On to `COC(=O)[C@H](CS[C@H](CC=C(C)C)C1=CC(=O)c2c(O)ccc(O)c2C1=O)NC(=O)CCCC[C@@H]1CCSC(c2cccc(Br)c2)S1` (stereo not given in full), for which the IC50 in the data set on NCI-H1299 [1] stood at 3.53 µM; with NCI-H1975 [2], 7.4 µM; with HCC827 [3] it was 11.8 µM; with A549 [4], 15.2 µM. Also, in “in vitro”, the IC50 at 24 h was 96.7 µM.

For the compound `COC(=O)[C@H](CS[C@H](CC=C(C)C)C1=CC(=O)c2c(O)ccc(O)c2C1=O)NC(=O)CCCC[C@@H]1CCSC(c2ccc(OCc3ccccc3)cc2)S1` (stereo not given in full), the IC50 was 24.8 µM in the data set with NCI-H1299 [1], 15.7 µM with NCI-H1975 [2], 19.3 µM in the data set with HCC827 [3] and 13.3 µM in the data set with A549 [4]. The same compound had an IC50 at 24 h in “in vitro” of 88.7 µM.

For `COC(=O)[C@H](CS[C@H](CC=C(C)C)C1=CC(=O)c2c(O)ccc(O)c2C1=O)NC(=O)CCCC[C@@H]1CCSC(c2ccc(Cl)cc2)S1` (stereo not given in full), the IC50 came out at 8.26 µM in the data set with NCI-H1299 [1], 8.26 µM with NCI-H1975 [2], 10.9 µM with HCC827 [3] and 11.5 µM in the data set with A549 [4]. Further, half-maximal inhibition in the data set “in vitro” (IC50 at 24 h) was put at 86 µM.

For the compound `COC(=O)[C@H](CS[C@H](CC=C(C)C)C1=CC(=O)c2c(O)ccc(O)c2C1=O)NC(=O)CCCC[C@@H]1CCSC(C2CCCCC2)S1` (stereo not given in full), the IC50 in the data set on NCI-H1299 [1] stood at 11.6 µM; in the data set on NCI-H1975 [2] it was 13.3 µM; in the data set with HCC827 [3] it was 11.5 µM; with A549 [4], 18.3 µM. The compound further yielded an IC50 at 24 h in “in vitro” of 86.1 µM.
